These results are taken from ChEMBL document CHEMBL1158509, “Novel selective thiazoleacetic acids as CRTH2 antagonists developed from in silico derived hits. Part 2” (Bioorg Med Chem Lett, 2010).

For experiment [1], the target named is T1, Prostaglandin D2 receptor 2 (Homo sapiens, UniProt Q9Y5Y4).
T1 sequence (Q9Y5Y4 whole entry): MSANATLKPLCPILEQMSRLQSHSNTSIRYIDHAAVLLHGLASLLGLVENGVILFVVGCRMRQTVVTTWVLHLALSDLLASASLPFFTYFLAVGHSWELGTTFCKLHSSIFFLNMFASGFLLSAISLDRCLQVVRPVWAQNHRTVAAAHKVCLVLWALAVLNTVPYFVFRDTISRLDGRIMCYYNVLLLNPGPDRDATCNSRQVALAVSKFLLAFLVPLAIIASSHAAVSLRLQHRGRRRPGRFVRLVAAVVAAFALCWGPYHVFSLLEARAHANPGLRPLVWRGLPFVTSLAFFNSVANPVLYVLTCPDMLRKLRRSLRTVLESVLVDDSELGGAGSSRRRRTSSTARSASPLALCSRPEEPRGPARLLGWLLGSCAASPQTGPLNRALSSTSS
The experiment in a line: Displacement of[3H]PGD2 from human CRTH2 receptor expressed in […] cells. The experiment is classed as cell-based.

In experiment [2] the target is T1, Prostaglandin D2 receptor 2. The experiment is described as follows: Antagonist activity at human CRTH2 receptor expressed in […] cells assessed as inhibition of beta arrestin translocation by bioluminescence resonance energy transfer assay. The experiment is classed as functional, cell-based.
Experiment [3] concerns the target T2, Prostaglandin D2 receptor 2 (Homo sapiens) (UniProt Q9Y5Y4).
T2 sequence (whole entry): T1 sequence (Q9Y5Y4 whole entry)
The experiment is described as follows: Antagonist activity at human CRTH2 receptor expressed in […] cells assessed as inhibition of beta arrestin translocation by bioluminescence resonance energy transfer assay relative to control. Type of experiment: functional, cell-based.

Consider `Nc1cc(-c2nc(C(c3ccc(F)cc3)c3ccc(F)cc3)sc2CC(=O)O)ccn1`, for which the IC50 stood at 0.0048 µM in experiment [1] and 0.064 µM in experiment [2]. In addition, in experiment [3], the Efficacy amounted to 80%.
Turning to `O=C(O)Cc1sc(C(c2ccccc2)c2ccccc2)nc1-c1cccc(F)c1`, the IC50 in experiment [1] was 0.0029 µM; in experiment [2] it was 0.029 µM. Also, the Efficacy in experiment [3] was 80%.
For `O=C(O)Cc1sc(C(c2ccccc2)c2ccccc2)nc1-c1ccc(F)cc1` the same measures were 0.0087 µM, 0.077 µM and 80%.
For `O=C(O)Cc1sc(C(c2ccc(F)cc2)c2ccc(F)cc2)nc1-c1cc(F)nc(F)c1`, the results for the IC50 in experiment [1] and in experiment [2] were 0.0054 µM and 0.11 µM, respectively. Besides, the Efficacy in experiment [3] worked out at 80%.
In the case of `COc1ccc(C(c2ccc(OC)cc2)c2nc(-c3ccc(F)cc3)c(CC(=O)O)s2)cc1`, the half-inhibitory concentration (IC50) in experiment [1] worked out at 0.0039 µM; in experiment [2], 0.031 µM. Moreover, the Efficacy in experiment [3] was determined as 80%.
For `O=C(O)Cc1sc(NCc2ccccc2)nc1-c1ccc(Cl)cc1` the same measures were 0.44 µM, 2.3 µM and 30%.
On the same counts, the results for `O=C(O)Cc1sc(C(c2ccccc2)C2CCCCC2)nc1-c1ccc(Cl)cc1` (stereo unspecified) are 0.53 µM, over 100 µM and 50%.
As to `CNc1cc(-c2nc(C(c3ccc(F)cc3)c3ccc(F)cc3)sc2CC(=O)O)ccn1`, the figures for the IC50 in experiment [1] and in experiment [2] were 0.025 µM and 0.17 µM, respectively. In experiment [3], the Efficacy was determined as 80%.
For `O=C(O)Cc1sc(C(c2ccc(F)cc2)c2ccc(F)cc2)nc1-c1ccc(F)cc1` the same measures were 0.0075 µM, 0.072 µM and 80%.
For `CC(=O)N1CCN(c2cc(-c3nc(C(c4ccc(F)cc4)c4ccc(F)cc4)sc3CC(=O)O)ccn2)CC1` the same measures were 0.36 µM, over 100 µM and 80%.
For `O=C(O)Cc1sc(C(c2ccc(F)cc2)c2ccc(F)cc2)nc1-c1ccco1`, the IC50 in experiment [1] is 0.018 µM; in experiment [2] it was 0.14 µM. The Efficacy in experiment [3] was 80%.
For `O=C(O)Cc1sc(C(c2ccccc2)c2ccccc2)nc1-c1ccc(C(F)(F)F)cc1`, the results for the IC50 in experiment [1] and in experiment [2] were 1.1 µM and over 100 µM, respectively. For the same molecule, the Efficacy in experiment [3] came out at 80%.
For `O=C(O)Cc1sc(C(c2ccc(F)cc2)c2ccc(F)cc2)nc1-c1cncc(F)c1` the same measures were 0.071 µM, 0.3 µM and 80%.
For `Nc1nc(-c2ccc(Cl)cc2)c(CC(=O)O)s1` the same measures were over 100 µM, over 100 µM and 50%.
On to `O=C(O)Cc1sc(COc2ccc(Cl)cc2)nc1-c1ccc(Cl)cc1`, for which the values for the IC50 in experiment [1] and in experiment [2] were 0.032 µM and 0.37 µM, respectively. Moreover, the Efficacy in experiment [3] was 50%.
For `O=C(O)Cc1sc(C(c2ccccc2)c2ccc(F)cc2)nc1-c1ccc(Cl)cc1` (stereo unspecified) the same measures were 0.017 µM, 0.036 µM and 80%.
Regarding `O=C(O)Cc1sc(C(c2ccccc2)c2ccccn2)nc1-c1ccc(Cl)cc1` (stereo unspecified), the IC50 in experiment [1] was 0.81 µM; in experiment [2], 1.9 µM. For the same molecule, in experiment [3], the Efficacy was 55%.
Regarding `O=C(O)Cc1sc(CC(c2ccccc2)c2ccccc2)nc1-c1ccc(Cl)cc1`, the IC50 in experiment [1] was 0.34 µM; in experiment [2] it was 32 µM. Moreover, in experiment [3], the Efficacy amounted to 50%.
`COc1ccc(-c2nc(C(c3ccccc3)c3ccccc3)sc2CC(=O)O)cc1`: the IC50 in experiment [1] came out at 0.37 µM; in experiment [2], 0.91 µM. In experiment [3], the Efficacy came out at 55%.
On the same counts, the results for `O=C(O)Cc1sc(Cc2cccc3ccccc23)nc1-c1ccc(Cl)cc1` are 0.041 µM, 0.57 µM and 30%.
For `O=C(O)Cc1sc(C(c2ccc(F)cc2)c2ccc(F)cc2)nc1-c1ccnc(N2CCCC2)c1` the same measures were 0.23 µM, over 100 µM and 80%.
As for `O=C(O)Cc1sc(C(c2ccc(F)cc2)c2ccc(F)cc2)nc1-c1ccn[nH]1`, the IC50 in experiment [1] was 0.28 µM; in experiment [2], 3.3 µM. Besides, the Efficacy in experiment [3] stood at 30%.
`O=C(O)Cc1sc(C2(c3ccccc3)CCNCC2)nc1-c1ccc(Cl)cc1`: the IC50 in experiment [1] is 2.9 µM; in experiment [2] it was over 100 µM. Moreover, the Efficacy in experiment [3] was 50%.
For the molecule `Cc1cc(-c2nc(C(c3ccc(F)cc3)c3ccc(F)cc3)sc2CC(=O)O)ccn1`, the IC50 turned out to be 0.0031 µM in experiment [1] and 0.053 µM in experiment [2]. Besides, the Efficacy in experiment [3] came out at 80%.
For `COc1cc(-c2nc(C(c3ccc(F)cc3)c3ccc(F)cc3)sc2CC(=O)O)ccn1` the same measures were 0.029 µM, 0.38 µM and 60%.
For `O=C(O)Cc1sc(C(c2ccc(F)cc2)c2ccc(F)cc2)nc1-c1cccnc1` the same measures were 0.068 µM, 0.51 µM and 80%.
For `O=C(O)Cc1sc(C(c2ccc(F)cc2)c2ccc(F)cc2)nc1-c1ccoc1` the same measures were 0.014 µM, 0.13 µM and 80%.
`O=C(O)Cc1sc(Cc2ccccc2)nc1-c1ccc(Cl)cc1`: in experiment [3], the Efficacy came out at 50%.
Take `O=C(O)Cc1sc(C(c2ccc(F)cc2)c2ccc(F)cc2)nc1-c1cc(F)cc(F)c1`: the IC50 in experiment [1] amounted to 0.035 µM; in experiment [2], 0.34 µM. Moreover, the Efficacy in experiment [3] came to 80%.
For `O=C(O)Cc1sc(C2COc3ccccc3O2)nc1-c1ccc(Cl)cc1` (stereo unspecified) the same measures were 0.5 µM, 2 µM and 50%.
As to `O=C(O)Cc1sc(C(c2ccc(F)cc2)c2ccc(F)cc2)nc1-c1ccnc(N2CCC2)c1`, the IC50 in experiment [1] is 0.66 µM; in experiment [2], over 100 µM. Also, the Efficacy in experiment [3] came out at 80%.
For `O=C(O)Cc1sc(C(c2ccccc2)c2ccc(O)cc2)nc1-c1ccc(F)cc1` (stereo unspecified) the same measures were 0.0034 µM, 0.03 µM and 80%.
Regarding `O=C(O)Cc1sc(-c2ccc(Oc3ccccc3)cc2)nc1-c1ccc(Cl)cc1`, the IC50 in experiment [2] was 1.3 µM. In addition, the Efficacy in experiment [3] came out at 50%.
`CN(C)c1cc(-c2nc(C(c3ccc(F)cc3)c3ccc(F)cc3)sc2CC(=O)O)ccn1`: the values for the IC50 in experiment [1] and in experiment [2] were 0.38 µM and over 100 µM, respectively. Besides, in experiment [3], the Efficacy was 80%.
Take `O=C(O)Cc1sc(C(c2ccccc2)c2ccc(Cl)cc2)nc1-c1ccc(F)cc1` (stereo unspecified): the IC50 was determined as 0.014 µM in experiment [1] and 0.079 µM in experiment [2]. In addition, the Efficacy in experiment [3] was determined as 80%.
On the same counts, the results for `N#Cc1ccc(-c2nc(C(c3ccc(F)cc3)c3ccc(F)cc3)sc2CC(=O)O)cc1` are 0.15 µM, 1.5 µM and 30%.
On the same counts, the results for `COc1ccc(Cl)cc1-c1nc(C(c2ccccc2)c2ccccc2)sc1CC(=O)O` are 9.4 µM, over 100 µM and 80%.
`O=C(O)Cc1sc(C(c2ccc(F)cc2)c2ccc(F)cc2)nc1-c1ccccc1`: the values for the IC50 in experiment [1] and in experiment [2] were 0.016 µM and 0.24 µM, respectively. Moreover, the Efficacy in experiment [3] was 80%.
`O=C(O)Cc1sc(C(c2ccc(F)cc2)c2ccc(F)cc2)nc1-c1cc[nH]c(=O)c1`: the IC50 was found to be 0.068 µM in experiment [1] and 0.89 µM in experiment [2].
For `O=C(O)Cc1sc(C(Cc2ccccc2)c2ccccc2)nc1-c1ccc(Cl)cc1` (stereo unspecified), the IC50 in experiment [1] worked out at 0.056 µM; in experiment [2] it was 0.51 µM. Further, the Efficacy in experiment [3] amounted to 50%.
For `O=C(O)Cc1sc(CS(=O)(=O)c2ccc(Cl)cc2)nc1-c1ccc(Cl)cc1` the same measures were 1.5 µM, 0.73 µM and 30%.
On the same counts, the results for `N#Cc1cccc(-c2nc(C(c3ccc(F)cc3)c3ccc(F)cc3)sc2CC(=O)O)c1` are 0.02 µM, 0.22 µM and 80%.
On the same counts, the results for `NS(=O)(=O)c1ccc(-c2nc(C(c3ccc(F)cc3)c3ccc(F)cc3)sc2CC(=O)O)cc1` are 1.5 µM, over 100 µM and 80%.
Turning to `O=C(O)Cc1sc(C(c2ccc(F)cc2)c2ccc(F)cc2)nc1-c1ccc(Cl)cc1`, the IC50 in experiment [1] was 0.0097 µM; in experiment [2], 0.18 µM. The Efficacy in experiment [3] worked out at 80%.
For `O=C(O)Cc1sc(C(c2ccccc2)c2ccc(F)c(F)c2)nc1-c1ccc(F)cc1` (stereo unspecified) the same measures were 0.01 µM, 0.064 µM and 80%.
For `O=C(O)Cc1sc(C(c2ccccc2)c2ccccc2)nc1-c1ccccc1` the same measures were 0.57 µM, 0.37 µM and 80%.
Regarding `O=C(O)Cc1sc(C(c2ccc(F)cc2)c2ccc(F)cc2)nc1-c1ccnc(O)c1`, in experiment [3], the Efficacy amounted to 60%.
Still for that read-out and setting: the figure for `O=C(O)Cc1sc(Nc2ccccc2)nc1-c1ccc(Cl)cc1` is 50%.
Consider `O=C(O)Cc1sc(-c2ccccc2)nc1-c1ccc(Cl)cc1` [FENTIAZAC], for which, in experiment [2], the IC50 was found to be 0.96 µM. Further, the Efficacy in experiment [3] worked out at 50%.
For the molecule `O=C(O)Cc1sc(Cc2ccccc2-c2ccccc2)nc1-c1ccc(Cl)cc1`, in experiment [3], the Efficacy was 50%.
For the molecule `COc1ccc(OC)c(-c2nc(C(c3ccccc3)c3ccccc3)sc2CC(=O)O)c1`, in experiment [2], the IC50 was over 100 µM. Besides, in experiment [3], the Efficacy was found to be 80%.

By IC50 is commonly meant the concentration that gives 50% inhibition.
